Values of other authors in patent publication US8658806B2, “Process for preparing optically active antrocin” (Deyew Biotech Corp., priority 2011, dated 2014).

Test system: MDA-MB-231 cells
Details: from Rao et al., Chem. Res. Toxicol. 2011, 24, 238-245, read-out: IC50 value against MDA-MB-231 cells of metastatic breast cancer

For C=C1CC[C@H]2C(C)(C)CCC[C@@]23C(=O)OC[C@@H]13 [antrocin], the IC50 is given as 600 nM.
